Like-named read-outs stand apart in the source and are kept apart here.
Assays:
[1] = test system: Mycosphaerella graminicola; Anamorph: Septoria tritici; assay: Leaf Blotch of Wheat fungicidal activity (SEPTTR); type: in vivo; details: for pest or weed control at 100 ppm / pest or weed control at 121.5 g/ha: Zymoseptoria tritici; for pest or weed control at 121.5 g/ha: rate 121.5 g/H
Method: Evaluation of Fungicidal Activity: Leaf Blotch of Wheat (Mycosphaerella graminicola; Anamorph: Septoria tritici; Bayer code […]) Technical grades of materials were dissolved in acetone, which were then mixed with nine volumes of water containing 110 ppm Triton X-100. The fungicide solutions were applied onto wheat seedlings using an automated booth sprayer to run-off. All sprayed plants were allowed to air dry prior to further handling. All fungicides were evaluated using the aforementioned method for their activity vs. all target diseases. Wheat leaf blotch and brown rust activity were also evaluated using track spray applications, in which case the fungicides were formulated as EC formulations, containing 0.1% Trycol 5941 in the spray solutions. Wheat plants (variety Yuma) were grown from seed in a greenhouse in 50% mineral soil/50% soil-less Metro mix until the first leaf was fully emerged, with 7-10 seedlings per pot. These plants were inoculated with an aqueous spore suspension of Septoria tritici either prior to or after fungicide treatments. After inoculation the plants were kept in 100% relative humidity (one day in a dark dew chamber followed by two to three days in a lighted dew chamber at 20° C.) to permit spores to germinate and infect the leaf. The plants were then transferred to a greenhouse set at 20° C. for disease to develop. When disease symptoms were fully expressed on the 1st leaves of untreated plants, infection levels were assessed on a scale of 0 to 100 percent disease severity. Percent disease control was calculated using the ratio of disease severity on treated plants relative to untreated plants.

Puccinia triticina = assay: Wheat Brown Rust fungicidal activity (PUCCRT); type: in vivo; details: for pest or weed control at 100 ppm / pest or weed control at 121.5 g/ha: Puccinia triticina; for pest or weed control at 121.5 g/ha: rate 121.5 g/H
Method: Technical grades of materials were dissolved in acetone, which were then mixed with nine volumes of water containing 110 ppm Triton X-100. The fungicide solutions were applied onto wheat seedlings using an automated booth sprayer to run-off. All sprayed plants were allowed to air dry prior to further handling. All fungicides were evaluated using the aforementioned method for their activity vs. all target diseases. Wheat leaf blotch and brown rust activity were also evaluated using track spray applications, in which case the fungicides were formulated as EC formulations, containing 0.1% Trycol 5941 in the spray solutions. Wheat plants (variety Yuma) were grown from seed in a greenhouse in 50% mineral soil/50% soil-less Metro mix until the first leaf was fully emerged, with 7-10 seedlings per pot. These plants were inoculated with an aqueous spore suspension of Septoria tritici either prior to or after fungicide treatments. After inoculation the plants were kept in 100% relative humidity (one day in a dark dew chamber followed by two to three days in a lighted dew chamber at 20° C.) to permit spores to germinate and infect the leaf. The plants were then transferred to a greenhouse set at 20° C. for disease to develop. When disease symptoms were fully expressed on the 1st leaves of untreated plants, infection levels were assessed on a scale of 0 to 100 percent disease severity. Percent disease control was calculated using the ratio of disease severity on treated plants relative to untreated plants. Evaluation of Fungicidal Activity: Wheat Brown Rust (Puccinia triticina; Synonym: Puccinia recondite f sp. tritici; Bayer code PUCCRT) Wheat plants (variety Yuma) were grown from seed in a greenhouse in 50% mineral soil/50% soil-less Metro mix until the first leaf was fully emerged, with 7-10 seedlings per pot. These plants were inoculated with an aqueous spore suspension of Puccinia triticina either prior to or after fungicide treatments. After inoculation the plants were kept in a dark dew room at 22° C. with 100% relative humidity overnight to permit spores to germinate and infect the leaf. The plants were then transferred to a greenhouse set at 24° C. for disease to develop. Fungicide formulation, application and disease assessment followed the procedures as described in the Example A.

[2] = 24 h, 1 Day Protectant, rate 100 ppm, read-out: Disease control SEPTTR 1DP
[3] = 24 h, 1 Day Protectant, read-out: Disease control SEPTTR 1DP
[4] = 72 h, 3 Day Curative, rate 100 ppm, read-out: Disease control SEPTTR 3DC
[5] = 72 h, 3 Day Curative, read-out: Disease control SEPTTR 3DC
[6] = 24 h, 1 Day Protectant, rate 100 ppm, read-out: Disease control PUCCRT 1DP
[7] = 24 h, 1 Day Protectant, read-out: Disease control PUCCRT 1DP
[8] = 72 h, 3 Day Curative, rate 100 ppm, read-out: Disease control PUCCRT 3DC
[9] = 72 h, 3 Day Curative, read-out: Disease control PUCCRT 3DC

SMILES | pest or weed control at 100 ppm [1, 2] [%] | pest or weed control at 121.5 g/ha [1, 3] [%] | pest or weed control at 100 ppm [1, 4] [%] | pest or weed control at 121.5 g/ha [1, 5] [%] | pest or weed control at 100 ppm (Puccinia triticina; [6]) [%] | pest or weed control at 121.5 g/ha (Puccinia triticina; [7]) [%] | pest or weed control at 100 ppm (Puccinia triticina; [8]) [%] | pest or weed control at 121.5 g/ha (Puccinia triticina; [9]) [%] | Disease control SEPTTR 1DP ([1]; 1 Day Protectant, rate 100 ppm) | Disease control SEPTTR 3DC ([1]; 3 Day Curative, rate 100 ppm) | Disease control PUCCRT 1DP (Puccinia triticina; 1 Day Protectant, rate 100 ppm)
CCCCCO[C@@H]1[C@@H](Cc2ccc(C)cc2)COC[C@H](NC(=O)c2nccc(OC)c2OC(C)=O)C(=O)O[C@H]1C [Compound F53] | 80 to 100 | 80 to 100 | 80 to 100 | 0 to 80 | 80 to 100 | 80 to 100 | 80 to 100 | 0 to 80 | – | – | –
COc1ccnc(C(=O)N[C@H]2COC[C@H](Cc3cc(F)c(F)c(F)c3)[C@@H](OCC(C)C)[C@H](C)OC2=O)c1OC(C)=O [Compound F72] | 80 to 100 | 80 to 100 | 80 to 100 | 80 to 100 | 80 to 100 | 80 to 100 | 80 to 100 | 80 to 100 | – | – | –
COc1ccnc(C(=O)N[C@H]2COC[C@H](Cc3ccc(F)cc3)[C@@H](OCCCC(F)(F)F)[C@H](C)OC2=O)c1OCOC(C)=O [Compound F93] | 80 to 100 | 80 to 100 | 80 to 100 | 80 to 100 | 80 to 100 | 80 to 100 | 80 to 100 | 80 to 100 | – | – | –
COc1ccnc(C(=O)N[C@H]2COC[C@H](Cc3ccc(C(F)(F)F)cc3)[C@@H](OC(=O)C3CC3)[C@H](C)OC2=O)c1OCOC(C)=O [Compound F98] | 80 to 100 | 80 to 100 | 80 to 100 | 0 to 80 | 80 to 100 | 80 to 100 | 80 to 100 | 0 to 80 | – | – | –
COc1ccnc(C(=O)N[C@H]2COC[C@H](Cc3ccc(C)cc3)[C@@H](OC(=O)C3CC3)[C@H](C)OC2=O)c1OCOC(C)=O [Compound F97] | 80 to 100 | 80 to 100 | 0 to 80 | 80 to 100 | 80 to 100 | 80 to 100 | 80 to 100 | 80 to 100 | – | – | –
COc1ccnc(C(=O)N[C@H]2COC[C@H](Cc3cccc4ccccc34)[C@@H](OC3CCCC3)[C@H](C)OC2=O)c1OCOC(C)=O [Compound F86] | 80 to 100 | – | 80 to 100 | – | 80 to 100 | – | 80 to 100 | – | – | – | –
COc1ccnc(C(=O)N[C@H]2COC[C@H](Cc3ccc(C(F)(F)F)cc3)[C@@H](OCC(C)C)[C@H](C)OC2=O)c1O [Compound F30] | – | – | – | – | – | – | – | – | A (80-100) | B (More than 0-Less than 80) | A (80-100)
COc1ccnc(C(=O)N[C@H]2COC[C@H](Cc3ccc(F)cc3)[C@@H](OCCCC(F)(F)F)[C@H](C)OC2=O)c1O [Compound F17] | 80 to 100 | – | 80 to 100 | – | 80 to 100 | – | 0 to 80 | – | – | – | –
CCCCCO[C@@H]1[C@@H](Cc2ccc(C(F)(F)F)cc2)COC[C@H](NC(=O)c2nccc(OC)c2O)C(=O)O[C@H]1C [Compound F31] | 80 to 100 | – | 0 to 80 | – | 0 to 80 | – | – | – | – | – | –
COc1ccnc(C(=O)N[C@H]2COC[C@H](Cc3ccc(C(F)(F)F)cc3)[C@@H](OCC(C)C)[C@H](C)OC2=O)c1O [Compound F27] | 80 to 100 | – | 0 to 80 | – | 80 to 100 | – | 0 to 80 | – | – | – | –
CCCCCO[C@@H]1[C@@H](Cc2ccc(C(F)(F)F)cc2)COC[C@H](NC(=O)c2nccc(OC)c2OCOC(C)=O)C(=O)O[C@H]1C [Compound F103] | 80 to 100 | – | 0 to 80 | – | 80 to 100 | – | 80 to 100 | – | – | – | –
CCCCCO[C@@H]1[C@@H](Cc2ccc(F)cc2)COC[C@H](NC(=O)c2nccc(OC)c2O)C(=O)O[C@H]1C [Compound F19] | 80 to 100 | – | 80 to 100 | – | 80 to 100 | – | 80 to 100 | – | – | – | –
CCCO[C@@H]1[C@@H](CCC(C)C)COC[C@H](NC(=O)c2nccc(OC)c2OC(C)=O)C(=O)O[C@H]1C [Compound F70] | 80 to 100 | – | 80 to 100 | – | 80 to 100 | – | 80 to 100 | – | – | – | –
CCCO[C@@H]1[C@@H](Cc2ccc(C(F)(F)F)cc2)COC[C@H](NC(=O)c2nccc(OC)c2OCOC(C)=O)C(=O)O[C@H]1C [Compound F101] | 80 to 100 | – | 80 to 100 | – | 80 to 100 | – | 80 to 100 | – | – | – | –
COc1ccnc(C(=O)N[C@H]2COC[C@H](Cc3ccc(F)cc3)[C@@H](OC3CCCC3)[C@H](C)OC2=O)c1OCOC(C)=O [Compound F94] | 80 to 100 | 80 to 100 | 80 to 100 | 80 to 100 | 80 to 100 | 80 to 100 | 80 to 100 | 80 to 100 | – | – | –
COc1ccnc(C(=O)N[C@H]2COC[C@H](CCC(C)C)[C@@H](OCC(C)C)[C@H](C)OC2=O)c1OC(C)=O [Compound F68] | 80 to 100 | 80 to 100 | 80 to 100 | 80 to 100 | 80 to 100 | 80 to 100 | 80 to 100 | 80 to 100 | – | – | –
COc1ccnc(C(=O)N[C@H]2COC[C@H](Cc3ccc(C(F)(F)F)cc3)[C@@H](OCC(C)C)[C@H](C)OC2=O)c1OCOC(C)=O [Compound F99] | 80 to 100 | 80 to 100 | 80 to 100 | 80 to 100 | 80 to 100 | 80 to 100 | 80 to 100 | 0 to 80 | – | – | –
COc1ccnc(C(=O)N[C@H]2COC[C@H](CCc3ccccc3)[C@@H](OC(=O)C3CC3)[C@H](C)OC2=O)c1OCOC(C)=O [Compound F92] | 80 to 100 | 80 to 100 | 80 to 100 | 80 to 100 | 80 to 100 | 80 to 100 | 80 to 100 | 80 to 100 | – | – | –
COc1ccnc(C(=O)N[C@H]2COC[C@H](Cc3ccc(C)cc3)[C@@H](OCC(C)C)[C@H](C)OC2=O)c1O [Compound F48, 3-hydroxy-N-((3S,7S,8R,9S)-8-isobutoxy-9-methyl-7-(4-methylbenzyl)-2-oxo-1,5-dioxonan-3-yl)-4-methoxypicolinamide] | 80 to 100 | – | 0 to 80 | – | 80 to 100 | – | 80 to 100 | – | – | – | –
